Test results from patent publication US9080214B2, “Genetic markers for efficacy of iloperidone in the treatment of psychotic symptoms” (Vanda Pharmaceuticals, Inc., priority 2007, dated 2015).

Test system: individuals diagnosed with schizophrenia
Assay: Change in PANSS-T by SNP genotype, patients on iloperidone 24 mg/day b.i.d. for 28 days (MMRM, LOCF)
Format: in vivo, human
Text: Earlier studies investigated an association between a polymorphism in the CNTF gene and iloperidone efficacy as well as associations between CYP2D6 and KCNQ1 genotypes and changes in QT interval following the administration of iloperidone. The present study involved the genotyping of DNA samples collected from 426 individuals diagnosed with schizophrenia in an attempt to identify additional SNPs associated with iloperidone efficacy. Each sample was genotyped at more than 500,000 SNP loci using the GeneChip® Human Mapping 500K Array Set (Affymetrix, Santa Clara, Calif.) and using assays developed in-house. Approximately half of the participants in the study were administered 24 mg/day of iloperidone, b.i.d., for 28 days. About 25% of the patients were administered ziprasidone. The remaining participants were administered a placebo. Three analyses of the PANSS-T were conducted. 1) A two-step approach where samples were randomly split into 2 groups of iloperidone-treated patients used to discover SNPs associated with changed in PANSS-T (Discovery phase) and a second group to confirm the 100 most significant SNPs (Confirmatory phase). 2) A one-step approach using the Last Observation Carried Forward (LOCF) PANSS-T data of all iloperidone-treated patients. For each SNP, the most parsimonious genetic model (e.g., homozygous for one allele v. all other genotypes [i.e., AA v. AB and BB], heterozygous v. homozygous [i.e., AB v. AA and BB]) was established with respect to iloperidone efficacy using a one-way analysis of variance (ANOVA). 3) A Mixed-effects Model Repeated Measures (MMRM) analysis was subsequently conducted using the best genetic model of each SNP in the MMRM model. MMRM analyses were also conducted with the PANSS subscales PANSS-P, PANSS-N, and PANSS-GP. The SNPs with a statistically significant association in all 3 analyses of PANSS-T, as well as the best of each analysis were considered significant findings and are listed below in Table 1. Results for each of these SNPs with the PANSS-T scales and with the three subscales PANSS-P, PANSS-N, and PANSS-GP are shown in Tables 2, 3, 4, and 5, respectively. As used herein, “greater iloperidone efficacy” means an improvement in PANSS-T score of at least about 20%. In the current study, this means an improvement of at least 13 points.

COc1cc(C(C)=O)ccc1OCCCN1CCC(c2noc3cc(F)ccc23)CC1 [iloperidone, 1-[4-[3-[4-(6-fluoro-1,2-benzisoxazol-3-yl)-1-piperidinyl]propoxy]-3-methoxyphenyl]ethanone]
mean of change in PANSS-T (SNP_A-1819750 (CREG1) genotype A_A): −18.13
mean of change in PANSS-T (SNP_A-1819750 (CREG1) genotype A_B*): −10.74
mean of change in PANSS-T (SNP_A-1819750 (CREG1) genotype B_B): −16.05
mean of change in PANSS-T (SNP_A-1819750 (CREG1) genotype nonAB**): −16.72
mean of change in PANSS-T (SNP_A-1860353 (RAP1B) genotype A_A**): −37.40
mean of change in PANSS-T (SNP_A-1860353 (RAP1B) genotype A_B): −11.79
mean of change in PANSS-T (SNP_A-1860353 (RAP1B) genotype B_B): −11.84
mean of change in PANSS-T (SNP_A-1860353 (RAP1B) genotype nonAA*): −11.83
mean of change in PANSS-T (SNP_A-1934663 genotype A_A): −18.67
mean of change in PANSS-T (SNP_A-1934663 genotype A_B): −18.34
mean of change in PANSS-T (SNP_A-1934663 genotype B_B*): −8.39
mean of change in PANSS-T (SNP_A-1934663 genotype nonBB**): −18.40
mean of change in PANSS-T (SNP_A-1973093 (KIAA0040) genotype A_A): −14.99
mean of change in PANSS-T (SNP_A-1973093 (KIAA0040) genotype A_B*): −6.21
mean of change in PANSS-T (SNP_A-1973093 (KIAA0040) genotype B_B): −16.73
mean of change in PANSS-T (SNP_A-1973093 (KIAA0040) genotype nonAB**): −16.39
mean of change in PANSS-T (SNP_A-1975928 (SLC2A9) genotype A_A): −13.09
mean of change in PANSS-T (SNP_A-1975928 (SLC2A9) genotype A_B): −13.17
mean of change in PANSS-T (SNP_A-1975928 (SLC2A9) genotype B_B*): 16.38
mean of change in PANSS-T (SNP_A-1975928 (SLC2A9) genotype nonBB**): −13.11
mean of change in PANSS-T (SNP_A-1987915 (GPR126) genotype A_A): −9.87
mean of change in PANSS-T (SNP_A-1987915 (GPR126) genotype A_B): −9.61
mean of change in PANSS-T (SNP_A-1987915 (GPR126) genotype B_B**): −17.29
mean of change in PANSS-T (SNP_A-1987915 (GPR126) genotype nonBB*): −9.67
mean of change in PANSS-T (SNP_A-2007721 (LOC58486) genotype A_A): −4.55
mean of change in PANSS-T (SNP_A-2007721 (LOC58486) genotype A_B**): −22.64
mean of change in PANSS-T (SNP_A-2007721 (LOC58486) genotype B_B): −9.55
mean of change in PANSS-T (SNP_A-2007721 (LOC58486) genotype nonAB*): −9.52
mean of change in PANSS-T (SNP_A-2044214 (HNT) genotype A_A): −15.71
mean of change in PANSS-T (SNP_A-2044214 (HNT) genotype A_B*): −7.43
mean of change in PANSS-T (SNP_A-2044214 (HNT) genotype B_B): −14.43
mean of change in PANSS-T (SNP_A-2044214 (HNT) genotype nonAB**): −15.26
mean of change in PANSS-T (SNP_A-2048427 (NPAS3) genotype A_A): −19.94
mean of change in PANSS-T (SNP_A-2048427 (NPAS3) genotype A_B): −20.15
mean of change in PANSS-T (SNP_A-2048427 (NPAS3) genotype B_B*): −9.20
mean of change in PANSS-T (SNP_A-2048427 (NPAS3) genotype nonBB**): −20.12
mean of change in PANSS-T (SNP_A-2070454 (NKX2-5) genotype A_A): −9.88
mean of change in PANSS-T (SNP_A-2070454 (NKX2-5) genotype A_B): −10.39
mean of change in PANSS-T (SNP_A-2070454 (NKX2-5) genotype B_B**): −18.31
mean of change in PANSS-T (SNP_A-2070454 (NKX2-5) genotype nonBB*): −10.23
mean of change in PANSS-T (SNP_A-2076797 (NUDT9P1) genotype A_A): −7.14
mean of change in PANSS-T (SNP_A-2076797 (NUDT9P1) genotype A_B**): −18.73
mean of change in PANSS-T (SNP_A-2076797 (NUDT9P1) genotype B_B): −6.04
mean of change in PANSS-T (SNP_A-2076797 (NUDT9P1) genotype nonAB*): −6.61
mean of change in PANSS-T (SNP_A-2103099 (HTR1A) genotype A_A): −17.43
mean of change in PANSS-T (SNP_A-2103099 (HTR1A) genotype A_B*): −8.31
mean of change in PANSS-T (SNP_A-2103099 (HTR1A) genotype B_B): −16.12
mean of change in PANSS-T (SNP_A-2103099 (HTR1A) genotype nonAB**): −16.60
mean of change in PANSS-T (SNP_A-2120958 genotype A_A): −13.95
mean of change in PANSS-T (SNP_A-2120958 genotype A_B): −13.71
mean of change in PANSS-T (SNP_A-2120958 genotype B_B*): 2.48
mean of change in PANSS-T (SNP_A-2120958 genotype nonBB**): −13.85
mean of change in PANSS-T (SNP_A-2170121 (C6) genotype A_A): −8.94
mean of change in PANSS-T (SNP_A-2170121 (C6) genotype A_B**): −21.93
mean of change in PANSS-T (SNP_A-2170121 (C6) genotype B_B): −11.50
mean of change in PANSS-T (SNP_A-2170121 (C6) genotype nonAB*): −9.17
mean of change in PANSS-T (SNP_A-2274533 (LZTS1) genotype A_A**): −15.95
mean of change in PANSS-T (SNP_A-2274533 (LZTS1) genotype A_B): −6.04
mean of change in PANSS-T (SNP_A-2274533 (LZTS1) genotype B_B): −6.21
mean of change in PANSS-T (SNP_A-2274533 (LZTS1) genotype nonAA*): −6.08
mean of change in PANSS-T (SNP_A-2283283 (XKR4) genotype A_A*): −3.30
mean of change in PANSS-T (SNP_A-2283283 (XKR4) genotype A_B): −14.57
mean of change in PANSS-T (SNP_A-2283283 (XKR4) genotype B_B): −15.66
mean of change in PANSS-T (SNP_A-2283283 (XKR4) genotype nonAA**): −15.02
mean of change in PANSS-T (SNP_A-2284243 (GRIA4) genotype A_A): −15.30
mean of change in PANSS-T (SNP_A-2284243 (GRIA4) genotype A_B): −15.17
mean of change in PANSS-T (SNP_A-2284243 (GRIA4) genotype B_B*): −3.30
mean of change in PANSS-T (SNP_A-2284243 (GRIA4) genotype nonBB**): −15.22
mean of change in PANSS-T (SNP_A-4204396 (CDH13) genotype A_A): −13.72
mean of change in PANSS-T (SNP_A-4204396 (CDH13) genotype A_B): −14.04
mean of change in PANSS-T (SNP_A-4204396 (CDH13) genotype B_B*): 4.89
mean of change in PANSS-T (SNP_A-4204396 (CDH13) genotype nonBB**): −13.84
mean of change in PANSS-T (SNP_A-4212785 (PPP1R3B) genotype A_A*): 25.90
mean of change in PANSS-T (SNP_A-4212785 (PPP1R3B) genotype A_B): −13.66
mean of change in PANSS-T (SNP_A-4212785 (PPP1R3B) genotype B_B): −13.56
mean of change in PANSS-T (SNP_A-4212785 (PPP1R3B) genotype nonAA**): −13.60
mean of change in PANSS-T (SNP_A-4230979 (ASB3) genotype A_A): −6.70
mean of change in PANSS-T (SNP_A-4230979 (ASB3) genotype A_B): −8.77
mean of change in PANSS-T (SNP_A-4230979 (ASB3) genotype B_B**): −18.82
mean of change in PANSS-T (SNP_A-4230979 (ASB3) genotype nonBB*): −8.34
mean of change in PANSS-T (SNP_A-4256833 (MLCK) genotype A_A): −15.19
mean of change in PANSS-T (SNP_A-4256833 (MLCK) genotype A_B*): −6.20
mean of change in PANSS-T (SNP_A-4256833 (MLCK) genotype B_B): −15.15
mean of change in PANSS-T (SNP_A-4256833 (MLCK) genotype nonAB**): −15.15
mean of change in PANSS-T (SNP_A-4258279 (RRM1) genotype A_A): −13.42
mean of change in PANSS-T (SNP_A-4258279 (RRM1) genotype A_B*): −2.55
mean of change in PANSS-T (SNP_A-4258279 (RRM1) genotype B_B): −14.72
mean of change in PANSS-T (SNP_A-4258279 (RRM1) genotype nonAB**): −14.70
